How the values were obtained:
[1] = tested on: Shrimp (L. vannamei) larvae; assay: Acute toxicity assay in shrimp larvae; type: in vivo, Litopenaeus vannamei; details: after 72 h of exposure
Experimental: Shrimp (L. vannamei) larvae (total length: 0.5 ± 0.04 cm, body weight: 4.2 ± 0.4 mg, mean ± SD) were provided by Zhejiang Mariculture Research Institute Qingjiang Station (Wenzhou, China). The larvae were maintained in a culture pond at 28 °C, fed four times a day with commercial feed pellets, and collected randomly for PCR testing to verify the WSSV-free status prior to the trial.
Acute toxicity of the coumarin derivatives was investigated by exposing larvae to a range of compound concentrations, from 0.1 mg/L to 100 mg/L of coumarin derivatives, where the dose setting was based on the data from preliminary tests in our laboratory. A DMSO-control (2%, v/v, the highest percentage of DMSO in treatments) served as the control. During the experiment, every 20 larvae were moved into six-well plates filled with 6 mL/per well freshly prepared test solutions for a 72-h incubation at 28 °C with a natural photoperiod. […] To avoid deterioration of water quality, dead shrimps were immediately removed at the point of observation. Three replicate experiments were performed.
Compound response curves were represented by a logistic sigmoidal function with a maximal effect level (Amax) and Hill coefficient representing the sigmoidal transition (Origin 8.1; http://www.originlab.com, accessed on 25 March 2021). Statistical analyses were performed using SPSS (version 18.0) statistical software (SPSS Inc., Chicago, IL, USA). The LC50 and EC50 values with 95% CIs were calculated using probit analysis. Virus titers were log10-transformed prior to statistical analyses. Unpaired Student’s t-tests were used to compare coumarin-treated samples and negative-control DMSO samples for determining significance and data are presented as mean values ± SD.

[2] = tested on: white spot syndrome virus (WSSV); assay: Survival of WSSV-infected shrimp larvae on co-incubation with compound; type: in vivo, Litopenaeus vannamei; details: for enhancement of survival rate in WSSV-infected larvae: 72 hpi, 10 mg/L, co-incubation; for decrease of mortality of WSSV-infected larvae after exposure: abstract statement
Experimental: For in vivo study of co-incubation, C2 and C7 was separately incubated with WSSV and shrimp larvae.
Figure 2 C2 and C7 inhibited WSSV infection in shrimp larvae. (A) Schematic diagram describing the workflow. (B) The survival rate of WSSV-infected shrimp was analyzed in 0.31 to 10 mg/L treatments at 72 hpi. (C) Survivorship curve of WSSV-infected shrimp was analyzed in C2 and C7 up to 10 mg/L treatment. (D) Quantification on copy number of viral genome was tested by exposure to C2 and C7 up to 10 mg/L treatment at 24, 48, and 72 hpi, respectively. The virus-infected shrimps were immersed with the compounds and DMSO at the dose 0.2‰ (v/v). Each value is represented as the mean ± SD normalized to values for no treatment. The p value for each study was determined by Student’s t tests. ** p < 0.01.
[…], shrimp larvae were randomly selected, separated into six-well plates containing ultraviolet light-sterilized aquacultural water, and infected with WSSV (final viral titer of 1.6 × 10^5 copies/µL) in the presence of coumarins for 72 h. Mock negative controls (1% DMSO) were also used. The homogenate of each well containing sick or dead shrimp was subjected to low-speed centrifugation (2000× g). The viral load was quantified by determining the copy number of the viral genome in samples by quantitative reverse transcription polymerase chain reaction (RT-qPCR) assay, as previously described.

[3] = tested on: white spot syndrome virus (WSSV); assay: Horizontal transmission of WSSV to naive recipient larvae; type: in vivo, Litopenaeus vannamei; details: 10 mg/L, each time point
Experimental: Shrimp larvae were infected with 1.6 × 10^5 copies/µL WSSV or aquacultural water only. At 24 hpi, a total of the 12 donor shrimps were placed into each challenge beaker (100 mL of water and a continuous air supply), and C2 (10 mg/L final concentration) or DMSO (0.2‰ final concentration) was added to each challenge beaker. Every 24 h, five donor and fifteen recipient shrimp were netted into a new challenge beaker with fresh water and a fresh dose of C2/C7 (10 mg/L) or DMSO (0.2‰). After 72 h of cohabitation, the surviving recipient shrimps were euthanized with MS-222 and frozen at −80 °C. In order to distinguish the donor and recipient samples in this test, we chose the larger shrimp as the recipients (total length of 1.1 ± 0.2 cm, body weight of 6.9 ± 0.5 mg, mean values ± SD) and placed a sieve in the challenge beaker to separate the donor and recipient shrimps.

[4] = tested on: white spot syndrome virus (WSSV); assay: Continuous immersion with compound exchange after WSSV infection; type: in vivo, Litopenaeus vannamei; details: for survival rate: 10 mg/L
Experimental: For continuous immersion with cultural medium exchange, the culture water in each well was replaced by C2/C7 or DMSO solution after WSSV infection (final viral titer of 1.6 × 10^5 copies/µL) for 24 h. Every 24 h, the shrimp were transformed into a new challenge well with fresh water and a fresh dose of C2/C7 or DMSO (0.2‰) for an additional 5 days. The survival shrimps were euthanized with MS-222 and frozen at −80 °C until processing. The survival of shrimp larvae and the copy number of viral genome in samples were described as above.

[5] = tested on: white spot syndrome virus (WSSV); assay: Stability assay in aquacultural water (residual anti-WSSV activity); design: species or system Litopenaeus vannamei; details: 28 °C, nonlinear regression best-fit
Experimental: Aquaculture water was obtained from culture ponds of the Zhejiang Mariculture Research Institute Qingjiang Station. C2/C7, with a final concentration of 10 mg/L, was added to aquacultural water samples in the presence of natural light for up to 4 days, at 28 °C, and finally preincubated with WSSV (final viral titer of 1.6 × 10^5 copies/µL) to infect shrimp larvae, followed by quantification of the copy number of the viral genome at 72 hpi, and the survival rate of the shrimp was evaluated.

[6] = tested on: white spot syndrome virus (WSSV); assay: Preincubation of WSSV with compound before infection of larvae; type: in vivo, Litopenaeus vannamei; details: virus pre-incubated with compound 1–4 h; for increase of survival rate: 10 mg/L
Experimental: For preincubation with immersion, WSSV was preincubated with C2/C7 to a final viral titer of 1.6 × 10^5 copies/µL and up to 10 mg/L coumarin compound or vehicle control in the challenge wells. After 1, 2, and 4 h of incubation, shrimp larvae were added to the challenge well until 72-h post-infection. The surviving shrimp were humanely euthanized with tricaine methane sulfonate (MS-222) at a final concentration of 150 mg/L, followed by quantification of the copy number of the viral genome.

[7] = 60 h after exposure, larvae pre-infected 24 h, no exchange, untreated 0%
[8] = at 120 h, compound exchanged one to four times

Molecule	signs of toxicity at the saturation concentration [1]	enhancement of survival rate in WSSV-infected larvae [2]	decrease of mortality of WSSV-infected larvae after exposure [2]	WSSV replication in naïve recipient larvae [3]	survival rate [4, 7]	mortality with continuous immersion of compound exchange ([4]; at 120 h)	survival rate [4, 8]	calculated inhibitory half-life in water samples ([5]; 10 mg/L)	effect on WSSV infection (viral genome copy number) [6]	increase of survival rate [6]	half-life at 10 mg/L ([5]; buffer, read-out: calculated inhibitory half-life in water samples (converted))
2-amino-4-(4-chlorophenyl)-5-oxo-4H,5H-pyrano[3,2-c]chromene-3-carbonitrile [C7]	No signs of toxicity were observed	more than 65%	more than 60%	significantly downregulated	50%	40%	more than 60%	57.6 h	suppressed WSSV infection	up to 40%	
Cc1ccc(C2C(C#N)=C(N)Oc3c2c(=O)oc2ccccc32)cc1 (centres unmarked) [C2, 2-amino-5-oxo-4-(p-tolyl)-4H,5H-pyrano[3,2-c]chromene-3-carbonitrile]	No signs of toxicity were observed	more than 65%	more than 60%	significantly downregulated	50%	40%	more than 60%		suppressed WSSV infection	up to 40%	55.2 h
